Data: ChEMBL document CHEMBL3885861, “Open TG-GATES”

Species: Rattus norvegicus
Assay: Open TG-GATES - Regimen: Daily Repeat
Type: toxicity, organism-based, Sprague-Dawley
Set-up: regimen Daily Repeat, gender Male, age 6 weeks
Settings: in vivo, po, 100 mg/kg, route gavage, dose level Low; for APTT / Bas / Eos / Fbg / Hb / Ht / Lym / MCH / MCHC / MCV / Mono / Neu / PT / Plat / RBC / Ret / WBC: tissue Blood; for KIDNEY_L / KIDNEY_R / KIDNEY_TOTAL: tissue Kidney; for LIVER: tissue Liver; for A/G / ALP / ALT / AST / BUN / CRE / Ca / Cl / DBIL / GLC / IP / K / LDH / Na / PL / RALB / TBIL / TC / TG / TP / gamma-GTP: tissue Plasma

Molecule CCOc1ccc(NC(=O)CC(C)O)cc1 (configuration not stated) [BUCETIN] has a TERMINAL_BW (72 h, time 3 day) of 249.8 g, an APTT (72 h, time 3 day) of 17.5 s and a Bas (72 h, time 3 day) of 0%. For the same molecule, the Eos (72 h, time 3 day) was 0.8%, the Fbg (72 h, time 3 day) was 309.6 mg/dL and the Hb (72 h, time 3 day) was 13.8 g/dL. For the same molecule, the Ht (72 h, time 3 day) was 41.5%, the Lym (72 h, time 3 day) was 76.4% and the MCH (72 h, time 3 day) was 21.2 pg. It also gave an MCHC (72 h, time 3 day) of 33.2%, an MCV (72 h, time 3 day) of 63.9 fL and a Mono (72 h, time 3 day) of 3.4%. The Neu (72 h, time 3 day) was 18.8%, the PT (72 h, time 3 day) was 14.1 s and the Plat (72 h, time 3 day) was 126.2 x10_4/uL. It also gave an RBC (72 h, time 3 day) of 650.6 x10_4/ul, a Ret (72 h, time 3 day) of 6.9% and a WBC (72 h, time 3 day) of 79.2 x10_2/uL. For the same molecule, the KIDNEY_L (72 h, time 3 day) was 1 g, the KIDNEY_R (72 h, time 3 day) was 1.1 g and the KIDNEY_TOTAL (72 h, time 3 day) was 2.1 g. The LIVER (72 h, time 3 day) was 12.1 g, the A/G (72 h, time 3 day) was 0.9 and the ALP (72 h, time 3 day) was 1621.2 IU/L. It also gave an ALT (72 h, time 3 day) of 35.2 IU/L, an AST (72 h, time 3 day) of 62.4 IU/L and a BUN (72 h, time 3 day) of 14.4 mg/dL. The CRE (72 h, time 3 day) was 0.2 mg/dL, the Ca (72 h, time 3 day) was 11 mg/dL and the Cl (72 h, time 3 day) was 105.6 meq/L. For the same molecule, the DBIL (72 h, time 3 day) was 0.02 mg/dL, the GLC (72 h, time 3 day) was 188.4 mg/dL and the IP (72 h, time 3 day) was 7.6 mg/dL. For the same molecule, the K (72 h, time 3 day) was 4.2 meq/L, the LDH (72 h, time 3 day) was 76.6 IU/L and the Na (72 h, time 3 day) was 143 meq/L. The PL (72 h, time 3 day) was 163.8 mg/dL, the RALB (72 h, time 3 day) was 2.7 g/dL and the TBIL (72 h, time 3 day) was 0.044 mg/dL. For the same molecule, the TC (72 h, time 3 day) was 82 mg/dL, the TG (72 h, time 3 day) was 116.4 mg/dL and the TP (72 h, time 3 day) was 5.9 g/dL. For the same molecule, the gamma-GTP (72 h, time 3 day) was 1 IU/L, the TERMINAL_BW ([…], time 7 day) was 303 g and the TERMINAL_BW ([…], time 14 day) was 338.2 g. It also gave a TERMINAL_BW ([…], time 28 day) of 405.9 g, an APTT ([…], time 7 day) of 17.7 s and a Bas ([…], time 7 day) of 0%. It also gave an Eos ([…], time 7 day) of 0.8%, a Fbg ([…], time 7 day) of 276.6 mg/dL and a Hb ([…], time 7 day) of 13.4 g/dL. The Ht ([…], time 7 day) was 40.1%, the Lym ([…], time 7 day) was 77.8% and the MCH ([…], time 7 day) was 20.5 pg. The MCHC ([…], time 7 day) was 33.5%, the MCV ([…], time 7 day) was 61.2 fL and the Mono ([…], time 7 day) was 2.8%. For the same molecule, the Neu ([…], time 7 day) was 17.6%, the PT ([…], time 7 day) was 14 s and the Plat ([…], time 7 day) was 121.8 x10_4/uL. The RBC ([…], time 7 day) was 655.4 x10_4/ul, the Ret ([…], time 7 day) was 5.8% and the WBC ([…], time 7 day) was 116.6 x10_2/uL. For the same molecule, the APTT ([…], time 14 day) was 19.2 s, the Bas ([…], time 14 day) was 0% and the Eos ([…], time 14 day) was 0.8%. It also gave a Fbg ([…], time 14 day) of 287.8 mg/dL, a Hb ([…], time 14 day) of 14.6 g/dL and a Ht ([…], time 14 day) of 43.2%. For the same molecule, the Lym ([…], time 14 day) was 74.6%, the MCH ([…], time 14 day) was 20.1 pg and the MCHC ([…], time 14 day) was 33.9%. For the same molecule, the MCV ([…], time 14 day) was 59.3 fL, the Mono ([…], time 14 day) was 2.4% and the Neu ([…], time 14 day) was 21.4%. The PT ([…], time 14 day) was 13.9 s, the Plat ([…], time 14 day) was 116.5 x10_4/uL and the RBC ([…], time 14 day) was 729.2 x10_4/ul. The Ret ([…], time 14 day) was 4.1%, the WBC ([…], time 14 day) was 86.9 x10_2/uL and the APTT ([…], time 28 day) was 17.9 s. The Bas ([…], time 28 day) was 0.2%, the Eos ([…], time 28 day) was 1% and the Fbg ([…], time 28 day) was 280.4 mg/dL. For the same molecule, the Hb ([…], time 28 day) was 15.6 g/dL, the Ht ([…], time 28 day) was 44.9% and the Lym ([…], time 28 day) was 81%. The MCH ([…], time 28 day) was 19.5 pg, the MCHC ([…], time 28 day) was 34.9% and the MCV ([…], time 28 day) was 55.9 fL. The Mono ([…], time 28 day) was 2%, the Neu ([…], time 28 day) was 15% and the PT ([…], time 28 day) was 14.1 s. For the same molecule, the Plat ([…], time 28 day) was 114.4 x10_4/uL, the RBC ([…], time 28 day) was 802.8 x10_4/ul and the Ret ([…], time 28 day) was 2.5%. For the same molecule, the WBC ([…], time 28 day) was 132 x10_2/uL, the KIDNEY_L ([…], time 7 day) was 1.3 g and the KIDNEY_R ([…], time 7 day) was 1.3 g. The KIDNEY_TOTAL ([…], time 7 day) was 2.5 g, the KIDNEY_L ([…], time 14 day) was 1.3 g and the KIDNEY_R ([…], time 14 day) was 1.2 g. It also gave a KIDNEY_TOTAL ([…], time 14 day) of 2.5 g, a KIDNEY_L ([…], time 28 day) of 1.4 g and a KIDNEY_R ([…], time 28 day) of 1.4 g. The KIDNEY_TOTAL ([…], time 28 day) was 2.9 g, the LIVER ([…], time 7 day) was 14.8 g and the LIVER ([…], time 14 day) was 14.9 g. For the same molecule, the LIVER ([…], time 28 day) was 16.3 g, the A/G ([…], time 7 day) was 0.8 and the ALP ([…], time 7 day) was 1437.2 IU/L. The ALT ([…], time 7 day) was 42.8 IU/L, the AST ([…], time 7 day) was 69.6 IU/L and the BUN ([…], time 7 day) was 15.8 mg/dL. For the same molecule, the CRE ([…], time 7 day) was 0.2 mg/dL, the Ca ([…], time 7 day) was 11 mg/dL and the Cl ([…], time 7 day) was 105 meq/L. It also gave a DBIL ([…], time 7 day) of 0.022 mg/dL, a GLC ([…], time 7 day) of 188.4 mg/dL and an IP ([…], time 7 day) of 7.3 mg/dL. It also gave a K ([…], time 7 day) of 4.2 meq/L, an LDH ([…], time 7 day) of 103.8 IU/L and a Na ([…], time 7 day) of 144.4 meq/L. It also gave a PL ([…], time 7 day) of 172.8 mg/dL, an RALB ([…], time 7 day) of 2.7 g/dL and a TBIL ([…], time 7 day) of 0.04 mg/dL. The TC ([…], time 7 day) was 80.6 mg/dL, the TG ([…], time 7 day) was 143 mg/dL and the TP ([…], time 7 day) was 6 g/dL. It also gave a gamma-GTP ([…], time 7 day) of 1.2 IU/L, an A/G ([…], time 14 day) of 0.8 and an ALP ([…], time 14 day) of 1590.2 IU/L. For the same molecule, the ALT ([…], time 14 day) was 34.4 IU/L, the AST ([…], time 14 day) was 62.6 IU/L and the BUN ([…], time 14 day) was 14.6 mg/dL. The CRE ([…], time 14 day) was 0.2 mg/dL, the Ca ([…], time 14 day) was 11.1 mg/dL and the Cl ([…], time 14 day) was 105.8 meq/L. It also gave a DBIL ([…], time 14 day) of 0.02 mg/dL, a GLC ([…], time 14 day) of 191 mg/dL and an IP ([…], time 14 day) of 7.4 mg/dL. It also gave a K ([…], time 14 day) of 3.8 meq/L, an LDH ([…], time 14 day) of 77.4 IU/L and a Na ([…], time 14 day) of 145.2 meq/L. For the same molecule, the PL ([…], time 14 day) was 159.2 mg/dL, the RALB ([…], time 14 day) was 2.8 g/dL and the TBIL ([…], time 14 day) was 0.06 mg/dL. It also gave a TC ([…], time 14 day) of 71.2 mg/dL, a TG ([…], time 14 day) of 145 mg/dL and a TP ([…], time 14 day) of 6.1 g/dL. The gamma-GTP ([…], time 14 day) was 1.2 IU/L, the A/G ([…], time 28 day) was 0.8 and the ALP ([…], time 28 day) was 1115.2 IU/L. It also gave an ALT ([…], time 28 day) of 32.6 IU/L, an AST ([…], time 28 day) of 64.6 IU/L and a BUN ([…], time 28 day) of 15.8 mg/dL. The CRE ([…], time 28 day) was 0.3 mg/dL, the Ca ([…], time 28 day) was 11 mg/dL and the Cl ([…], time 28 day) was 104.8 meq/L. For the same molecule, the DBIL ([…], time 28 day) was 0.022 mg/dL, the GLC ([…], time 28 day) was 188.6 mg/dL and the IP ([…], time 28 day) was 5.9 mg/dL. It also gave a K ([…], time 28 day) of 3.9 meq/L, an LDH ([…], time 28 day) of 82.8 IU/L and a Na ([…], time 28 day) of 145.2 meq/L. For the same molecule, the PL ([…], time 28 day) was 155 mg/dL, the RALB ([…], time 28 day) was 2.9 g/dL and the TBIL ([…], time 28 day) was 0.06 mg/dL. It also gave a TC ([…], time 28 day) of 70.4 mg/dL, a TG ([…], time 28 day) of 145 mg/dL and a TP ([…], time 28 day) of 6.4 g/dL. The gamma-GTP ([…], time 28 day) was 1.4 IU/L.
